# Experimental data published in PubChem BioAssay AID256 (DTP/NCI, 2004).
# Several values for one entry are separate records, joined by “and”; a condition that tells them apart may be missing. Equal values may be shown once. Inconclusive results and toxic doses are left out.
# System: CD2F1 mice, L1210 leukemia ip, survival T/C
# Experiment: NCI In Vivo Anticancer Drug Screen. Data for tumor model L1210 Leukemia (intraperitoneal) in CD2F1 (CDF1) mice
# Settings: higher = longer survival
# Outline: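 Ratio T/C, where T is the treated-group value and C the vehicle-dosed control value, from mice implanted with a transplantable tumor.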
# [1] = endpoint: mean survival time, dose: 100.0 mg/kg/injection, schedule: Q01DX001 (ip), vehicle: saline
# [2] = endpoint: mean survival time, dose: 200.0 mg/kg/injection, schedule: Q01DX001 (ip), vehicle: saline
# [3] = endpoint: mean survival time, dose: 400.0 mg/kg/injection, schedule: Q01DX001 (ip), vehicle: saline
# [4] = endpoint: mean survival time, dose: 100.0 mg/kg/injection, schedule: Q01DX001 (ip), vehicle: saline with Tween-80
# [5] = endpoint: mean survival time, dose: 100.0 mg/kg/injection, schedule: Q04DX003 (ip), vehicle: saline with Tween-80
# [6] = endpoint: mean survival time, dose: 200.0 mg/kg/injection, schedule: Q01DX001 (ip), vehicle: saline with Tween-80
# [7] = endpoint: mean survival time, dose: 200.0 mg/kg/injection, schedule: Q04DX003 (ip), vehicle: saline with Tween-80
# [8] = endpoint: mean survival time, dose: 400.0 mg/kg/injection, schedule: Q01DX001 (ip), vehicle: saline with Tween-80
# [9] = endpoint: mean survival time, dose: 400.0 mg/kg/injection, schedule: Q04DX003 (ip), vehicle: saline with Tween-80
# [10] = endpoint: mean survival time, dose: 100.0 mg/kg/injection, schedule: Q04DX002 (ip), vehicle: saline with Tween-80
# [11] = endpoint: mean survival time, dose: 100.0 mg/kg/injection, schedule: Q04DX003 (ip), vehicle: saline
# [12] = endpoint: mean survival time, dose: 200.0 mg/kg/injection, schedule: Q04DX003 (ip), vehicle: saline
# [13] = endpoint: mean survival time, dose: 400.0 mg/kg/injection, schedule: Q04DX003 (ip), vehicle: saline
# [14] = endpoint: mean survival time, dose: 100.0 mg/kg/injection, schedule: Q01DX009 (ip), vehicle: saline with Tween-80
# [15] = endpoint: mean survival time, dose: 200.0 mg/kg/injection, schedule: Q01DX009 (ip), vehicle: saline with Tween-80
# [16] = endpoint: mean survival time, dose: 400.0 mg/kg/injection, schedule: Q01DX009 (ip), vehicle: saline with Tween-80
smiles,measurement,setting,value
CC(C)CC(CC(C)C)=NNc1ccc([N+](=O)[O-])cc1[N+](=O)[O-],T/C,[1],100 % of control
same,T/C,[2],103 % of control
same,T/C,[3],100 % of control
O=C1C=CC(=O)c2c1ccc1ccccc21,T/C,"endpoint: mean survival time, dose: 12.5 mg/kg/injection, schedule: Q01DX001 (ip), vehicle: acetone",104 % of control
same,T/C,"endpoint: mean survival time, dose: 25.0 mg/kg/injection, schedule: Q01DX001 (ip), vehicle: acetone",105 % of control
same,T/C,"endpoint: mean survival time, dose: 50.0 mg/kg/injection, schedule: Q01DX001 (ip), vehicle: acetone",105 % of control
OCC(O)C(O)C(O)C(O)CO (configuration not stated) (tested in a mixture with another compound),T/C,"endpoint: mean survival time, dose: 37.5 mg/kg/injection, schedule: Q01DX001 (ip), vehicle: saline",94 % of control
same,T/C,"endpoint: mean survival time, dose: 75.0 mg/kg/injection, schedule: Q01DX001 (ip), vehicle: saline",96 % of control
same,T/C,[4],88 % of control and 104 % of control
same,T/C,[5],93 % of control and 90 % of control
same,T/C,"endpoint: mean survival time, dose: 150.0 mg/kg/injection, schedule: Q01DX001 (ip), vehicle: saline",95 % of control
same,T/C,[6],88 % of control and 98 % of control
same,T/C,[7],95 % of control and 90 % of control
same,T/C,[8],92 % of control and 93 % of control
same,T/C,[9],97 % of control and 92 % of control
c1ccc(NC2=NCCO2)nc1,T/C,[4],101 % of control
same,T/C,[6],100 % of control
Cc1ccc(S(=O)(=O)C[n+]2ccc(C(=O)c3ccccc3)cc2)cc1,T/C,"endpoint: mean survival time, dose: 25.0 mg/kg/injection, schedule: Q04DX002 (ip), vehicle: saline with Tween-80",90 % of control
same,T/C,"endpoint: mean survival time, dose: 50.0 mg/kg/injection, schedule: Q04DX002 (ip), vehicle: saline with Tween-80",97 % of control
same,T/C,[10],97 % of control and 104 % of control
CCOP(=O)(OCC)C(C)OC (configuration not stated),T/C,[11],97 % of control
same,T/C,[12],108 % of control
same,T/C,[13],97 % of control
CCOc1ccc2c(O)csc2c1,T/C,[5],90 % of control
same,T/C,[7],91 % of control
same,T/C,[9],91 % of control
c1ccc(N=N/C(=N/Nc2ccccc2)c2ccccc2)cc1,T/C,"endpoint: mean survival time, dose: 6.25 mg/kg/injection, schedule: Q01DX009 (ip), vehicle: saline with Tween-80",104 % of control
same,T/C,"endpoint: mean survival time, dose: 12.5 mg/kg/injection, schedule: Q01DX009 (ip), vehicle: saline with Tween-80",101 % of control
same,T/C,"endpoint: mean survival time, dose: 25.0 mg/kg/injection, schedule: Q01DX009 (ip), vehicle: saline with Tween-80",98 % of control
CN(C)N=Nc1c(-c2cccs2)n[nH]c1C(F)(F)F,T/C,"endpoint: mean survival time, dose: 75.0 mg/kg/injection, schedule: Q01DX001 (ip), vehicle: other",103 % of control
same,T/C,"endpoint: mean survival time, dose: 150.0 mg/kg/injection, schedule: Q01DX001 (ip), vehicle: other",103 % of control
same,T/C,"endpoint: mean survival time, dose: 300.0 mg/kg/injection, schedule: Q01DX001 (ip), vehicle: other",105 % of control
N\C([S-])=N/N=C\C(=N/N=C(\N)[S-])C(O)C(O)C(O)CO.[Pd+2] (configuration not stated),T/C,"endpoint: mean survival time, dose: 50.0 mg/kg/injection, schedule: Q01DX009 (ip), vehicle: saline with Tween-80",112 % of control
same,T/C,[14],104 % of control
same,T/C,[15],89 % of control
CC(CCOP(=O)(N(C)C)N(CCCl)CCCl)OCc1ccccc1 (configuration not stated),T/C,"endpoint: mean survival time, dose: 25.0 mg/kg/injection, schedule: Q01DX001 (ip), vehicle: other",101 % of control
same,T/C,"endpoint: mean survival time, dose: 50.0 mg/kg/injection, schedule: Q01DX001 (ip), vehicle: other",102 % of control
same,T/C,"endpoint: mean survival time, dose: 100.0 mg/kg/injection, schedule: Q01DX001 (ip), vehicle: other",98 % of control
same,T/C,"endpoint: mean survival time, dose: 200.0 mg/kg/injection, schedule: Q01DX001 (ip), vehicle: other",87 % of control
same,T/C,"endpoint: mean survival time, dose: 400.0 mg/kg/injection, schedule: Q01DX001 (ip), vehicle: other",95 % of control
COC1OC(COC(=O)c2ccccc2)C2OC(=O)OC12 (configuration not stated),T/C,[5],93 % of control
same,T/C,[7],90 % of control
same,T/C,[9],102 % of control
Cc1c(N)nc(I)c2ccccc12,T/C,[14],98 % of control
same,T/C,[15],93 % of control
same,T/C,[16],87 % of control
CC1(C)CC[N+]1(C)C,T/C,"endpoint: mean survival time, dose: 12.5 mg/kg/injection, schedule: Q04DX003 (ip), vehicle: saline",96 % of control
same,T/C,"endpoint: mean survival time, dose: 25.0 mg/kg/injection, schedule: Q04DX003 (ip), vehicle: saline",102 % of control
same,T/C,"endpoint: mean survival time, dose: 50.0 mg/kg/injection, schedule: Q04DX003 (ip), vehicle: saline",97 % of control
O=CNc1ccc(C(=O)O)c(O)c1,T/C,[1],95 % of control
same,T/C,"endpoint: mean survival time, dose: 100.0 mg/kg/injection, schedule: Q01DX009 (ip), vehicle: saline",94 % of control and 95 % of control
same,T/C,"endpoint: mean survival time, dose: 100.0 mg/kg/injection, schedule: Q04DX002 (ip), vehicle: saline",97 % of control
same,T/C,[5],100 % of control
same,T/C,[2],100 % of control and 106 % of control
same,T/C,"endpoint: mean survival time, dose: 200.0 mg/kg/injection, schedule: Q01DX009 (ip), vehicle: saline",96 % of control and 98 % of control
same,T/C,"endpoint: mean survival time, dose: 200.0 mg/kg/injection, schedule: Q04DX002 (ip), vehicle: saline",86 % of control and 94 % of control
same,T/C,[7],98 % of control
same,T/C,[3],88 % of control and 92 % of control
same,T/C,"endpoint: mean survival time, dose: 400.0 mg/kg/injection, schedule: Q01DX009 (ip), vehicle: saline",100 % of control
same,T/C,"endpoint: mean survival time, dose: 400.0 mg/kg/injection, schedule: Q04DX002 (ip), vehicle: saline",92 % of control and 108 % of control
same,T/C,[9],98 % of control
CCOC(=O)c1ccc(NC(=O)N(CC)c2ccccc2)cc1,T/C,[14],96 % of control and 100 % of control
same,T/C,[10],100 % of control and 109 % of control
same,T/C,[5],94 % of control
same,T/C,[15],95 % of control and 104 % of control
same,T/C,"endpoint: mean survival time, dose: 200.0 mg/kg/injection, schedule: Q04DX002 (ip), vehicle: saline with Tween-80",92 % of control and 102 % of control
same,T/C,[7],94 % of control
same,T/C,[16],96 % of control and 100 % of control
same,T/C,"endpoint: mean survival time, dose: 400.0 mg/kg/injection, schedule: Q04DX002 (ip), vehicle: saline with Tween-80",94 % of control and 98 % of control
same,T/C,[9],95 % of control
CS(=O)(=O)c1nnc(-c2ccccc2)s1,T/C,"endpoint: mean survival time, dose: 100.0 mg/kg/injection, schedule: Q04DX003 (ip), vehicle: Klucel (hydroxypropylcellulose) (HPC)",90 % of control
same,T/C,"endpoint: mean survival time, dose: 200.0 mg/kg/injection, schedule: Q04DX003 (ip), vehicle: Klucel (hydroxypropylcellulose) (HPC)",90 % of control
C=C=CCCCCOC1CCCCO1 (configuration not stated),T/C,[4],89 % of control
same,T/C,[6],89 % of control
same,T/C,[8],89 % of control
Cc1sc2ccccc2c2nc3ccccc3c1-2,T/C,[14],106 % of control
same,T/C,[15],104 % of control
same,T/C,[16],107 % of control
OC1CCCC(O)C1O (configuration not stated),T/C,[11],101 % of control
same,T/C,[12],97 % of control
same,T/C,[13],101 % of control
CCC(/C=N\O)CC,T/C,[1],100 % of control
same,T/C,[2],108 % of control
CCOC(=O)C(C)(C)CN1COCC1(C)C,T/C,[4],112 % of control
same,T/C,[6],109 % of control
O=C(N/N=C/c1ccc([N+](=O)[O-])o1)c1ccccc1N=Cc1ccc([N+](=O)[O-])o1,T/C,[14],96 % of control
same,T/C,[15],98 % of control
same,T/C,[16],104 % of control
c1ccc(NC2CCN(C3(c4ccccc4)CCCCC3)CC2)cc1,T/C,"endpoint: mean survival time, dose: 25.0 mg/kg/injection, schedule: Q04DX002 (ip), vehicle: saline",97 % of control
same,T/C,"endpoint: mean survival time, dose: 50.0 mg/kg/injection, schedule: Q04DX002 (ip), vehicle: saline",94 % of control
CCCCOc1cc([N+](=O)[O-])ccc1CO,T/C,[5],94 % of control
same,T/C,[7],92 % of control
same,T/C,[9],87 % of control
COc1ccc2[nH]c3ccc4cc[n+](CCN5CCC(C6CCN(CC[n+]7ccc8ccc9[nH]c%10ccc(OC)cc%10c9c8c7)CC6)CC5)cc4c3c2c1,T/C,"endpoint: median survival time, dose: 8.0 mg/kg/injection, schedule: Q01DX009 (ip), vehicle: water",172 % of control and 246 % of control
same,T/C,"endpoint: median survival time, dose: 16.0 mg/kg/injection, schedule: Q01DX009 (ip), vehicle: water",160 % of control and 185 % of control
same,T/C,"endpoint: median survival time, dose: 16.25 mg/kg/injection, schedule: Q01DX009 (ip), vehicle: water",172 % of control
same,T/C,"endpoint: median survival time, dose: 32.0 mg/kg/injection, schedule: Q01DX009 (ip), vehicle: water",119 % of control
same,T/C,"endpoint: median survival time, dose: 32.5 mg/kg/injection, schedule: Q01DX009 (ip), vehicle: water",197 % of control
same,T/C,"endpoint: median survival time, dose: 200.0 mg/kg/injection, schedule: Q01DX009 (ip), vehicle: Klucel (hydroxypropylcellulose) (HPC)",91 % of control and 102 % of control
O=C1CC(NC(=O)C(F)(F)F)C(=O)O1 (configuration not stated),T/C,[11],94 % of control
same,T/C,[12],95 % of control
same,T/C,[13],94 % of control
CCC1(O)C(=O)OCc2c1cc1n(c2=O)Cc2cc3ccc(N(C)C)cc3nc2-1 (configuration not stated),T/C,"endpoint: median survival time, dose: 10.0 mg/kg/injection, schedule: Q04DX002 (ip), vehicle: saline with Tween-80",103 % of control
same,T/C,"endpoint: median survival time, dose: 20.0 mg/kg/injection, schedule: Q04DX002 (ip), vehicle: saline with Tween-80",106 % of control
same,T/C,"endpoint: median survival time, dose: 40.0 mg/kg/injection, schedule: Q04DX002 (ip), vehicle: saline with Tween-80",106 % of control
same,T/C,"endpoint: median survival time, dose: 80.0 mg/kg/injection, schedule: Q04DX002 (ip), vehicle: saline with Tween-80",112 % of control
CC1(C)CC2(OC2c2ccccc2[N+](=O)[O-])C(=O)c2ccccc21 (configuration not stated),T/C,[14],98 % of control
same,T/C,[5],96 % of control
same,T/C,[15],96 % of control
same,T/C,[7],98 % of control
same,T/C,[16],96 % of control
same,T/C,[9],91 % of control
